{
  "source": "patent US5879716A",
  "about": "“Methods and compositions for topical delivery of benzoyl peroxide” (priority 1993, dated 1999)",
  "key": {"[1]": {"conditions": "cited from earlier work"}, "[2]": {"experiment": "Solubility of benzoyl peroxide", "type": "physicochemical"}, "[3]": {"conditions": "human skin specimens used within 7 to 10 days; cited from earlier work"}},
  "note": "Where two headings read alike, the source gives them in different places.",
  "data": [
    {"smiles": "O=C(OOC(=O)c1ccccc1)c1ccccc1", "note": "[Benzoyl peroxide, benzoyl peroxide]", "values": [
      {"measurement": "solubility", "setting": "[1]; alcohols", "result": "slightly soluble in alcohols"},
      {"measurement": "solubility", "setting": "[1]; organic solvents", "result": "soluble in nearly all organic solvents"},
      {"measurement": "solubility", "setting": "[1]; organic solvents, listed as benzoyl peroxide", "result": "limited solubility in most solvents"},
      {"measurement": "solubility", "setting": "[1]; water", "result": "slightly soluble in water"},
      {"measurement": "solution concentration obtainable", "setting": "[2]; acetone and isopropanol", "result": "up to 10 % by weight"},
      {"measurement": "solubility of the drug in the formulation", "setting": "[2]; formulations F and G", "result": "very low solubility"},
      {"measurement": "solubility", "setting": "[2]; water or normal saline solution", "result": "exceedingly low solubility"},
      {"measurement": "metabolism during skin absorption", "setting": "[3]", "result": "metabolized to benzoic acid and accumulated as such in the receptor fluid"}
    ]}
  ]
}
